{"source": "patent US11077108B2", "about": "“Allosteric corticotropin-releasing factor receptor 1 (CRFR1) antagonists that decrease p-tau and improve cognition” (The Regents of the University of California, priority 2016, dated 2021)", "key": {"[1]": {"test_system": "tau and ptau in SH-SY5Y cells", "experiment": "tau and p-tau levels in SH-SY5Y cells after compound treatment (AlphaLISA)", "assay_type": "cell-based, Human", "conditions": "1 μM compound, 24 hours, no CRF", "experimental": "Human neuroblastoma SH-SY5Y cells were treated for 24 hours with 1 μM compound, and then tau and ptau levels were determined from cell lysates using AlphaLISA (FIG. 7A). T41, as well as J32. […] Antalarmin (Ant), a known CRF1 antagonist, was used as a control."}, "CRFR1 [2]": {"target": "T1, CRFR1 (Homo sapiens, UniProt P34998)", "T1 sequence (P34998 24-415)": "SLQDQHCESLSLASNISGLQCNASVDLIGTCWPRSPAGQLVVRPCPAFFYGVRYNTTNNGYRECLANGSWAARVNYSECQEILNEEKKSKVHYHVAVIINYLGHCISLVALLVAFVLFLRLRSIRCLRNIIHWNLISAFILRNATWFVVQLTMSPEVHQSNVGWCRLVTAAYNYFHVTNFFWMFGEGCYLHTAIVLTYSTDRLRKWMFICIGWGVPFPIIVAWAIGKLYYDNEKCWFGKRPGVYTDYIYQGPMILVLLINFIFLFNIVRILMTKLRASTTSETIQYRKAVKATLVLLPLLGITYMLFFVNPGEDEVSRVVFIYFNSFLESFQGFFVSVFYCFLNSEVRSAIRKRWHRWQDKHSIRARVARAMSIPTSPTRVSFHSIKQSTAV", "experiment": "CRF1 antagonist effect (inhibition of CRFR1 cAMP signaling upon CRF binding)", "assay_type": "cell-based", "design": "expressed in transfected cells; host or cells: COS-M6 (transiently transfected)"}, "CRFR1 [3]": {"target": "T1, CRFR1", "experiment": "Radioligand-receptor binding assay (agonist radioligand), CRF1 Kd", "design": "expressed in transfected cells; host or cells: HEK293 (permanently transfected), membranes", "conditions": "[125I]Tyr-sauvagine agonist radioligand", "experimental": "Radioligand-Receptor Binding Assays (Agonist Radioligand).\nIsolation of membranes from permanently transfected HEK293 cells expressing tCRFR1 or hCRFR1 and Scatchard analysis were performed with 50-100 ng protein as described (3) except that 50 pM [^125I]Tyr-sauvagine (NEN) was used as radioligand. [^125I]Tyr-Sauvagine was chosen as radioligand because of its equal high affinity for both CRF-R1 and CRF-R2. Nonspecific binding was always defined as residual [^125I]Tyr-sauvagine binding in the presence of 1 μM unlabeled ligand. The dissociation constant, KD, was calculated by the Ligand program (Munson et al. (1980) Anal. Biochem. 107: 220)."}, "[4]": {"experiment": "Parallel Artificial Membrane Permeability Assay (PAMPA), kIAM on IAM.PC.DD.2 HPLC column", "assay_type": "in vitro ADME", "conditions": "kIAM >1 indicative of good brain permeability", "experimental": "Receptor Binding, Inhibition, and Parallel Artificial Membrane Permeability Assay (PAMPA).\nAgilent 1260 infinity high-performance liquid chromatography system was used for analysis. The analytical column used was an IAM.PC.DD.2 column (4.6 mm i.d.×10 cm length, particle size […], pore size 300 Å) purchased from Regis Technologies (Morton Grove, Ill.). The mobile phase was a mixture of acetonitrile and water (35:65 v/v). The flow rate of the mobile phase was maintained at 1.0 ml/min at 25° C., and the ultraviolet absorption wavelength was set at 254 nm. Analysis was performed using 5 μL injection of the 2 mM stock solutions of the compounds. Compounds with kIAM values >1 in the PAMPA assay in our hands are indicative of good brain permeability."}, "[5]": {"test_system": "\"Goldstein\" (GS) prnp-huAPPwt-YFP mouse model", "experiment": "Novel Object Recognition (NOR) in corticosterone (CTS)-treated GS mice", "assay_type": "in vivo", "conditions": "T41 30 mkd oral 1 hour before CTS 30 mkd SQ, 21 days", "text": "(§1) The purpose of this study was to determine behavioral and biochemical effects of T41 (shown below and in FIG. 2) and its ability to prevent corticosterone (CTS)-induced increases in ptau in the “Goldstein” (GS) prnp-huAPPwt-YFP mouse model. Corticosterone is known to increase CRF, which then should bind the receptor and trigger increases in ptau with chronic CTS injection. Biochemistry included total tau, ptau, and sAPPα from combined entorhinal cortex and hippocampus. Levels of sAPPβ, βCTF, and […] and -42 are believed to be too low to detect in this model."}, "ptau and total tau": {"test_system": "ptau and total tau", "experiment": "In vivo ptau, total tau and ptau/tau ratio, combined entorhinal cortex and hippocampus, CTS-treated GS mice", "design": "species or system mouse", "conditions": "T41 30 mkd oral + CTS, 21 days"}, "[6]": {"test_system": "tau and ptau in SH-SY5Y cells with CRF challenge", "experiment": "CRF challenge assay, tau and p-tau in SH-SY5Y cells", "assay_type": "cell-based, Human", "conditions": "for ptau/tau ratio: 1 μM compound, three days", "experimental": "[…] On the next day, cells were treated with 100 nM CRF for 3 days. Next, cells were lysed with RIPA buffer complemented with Halt Cocktail Inhibitors, and freeze/thaw 3 times. […] Significance was not seen without CRF due to low N#, but is highly significant with CRF."}, "human sAPPα": {"test_system": "human sAPPα", "experiment": "In vivo sAPPα, CTS-treated GS mice", "design": "species or system mouse", "conditions": "T41 30 mkd oral + CTS, 21 days", "text": "as §1\nThe assay used to detect sAPPα recognizes human sAPPα, therefore the signal is expected to be undetectable in NTg mice. There was little or no difference between GS Veh and GS CTS mice (FIG. 13). […] Increases in sAPPα are correlated with improvement in cognition."}, "[7]": {"experiment": "In vivo pharmacokinetics, plasma and brain levels", "conditions": "adult mice", "experimental": "FIG. 10 illustrates in vivo pharmacokinetics for T41. As shown in the top panel, after oral or subcutaneous (SQ) dosing of adult mice at 10 or 30 mg/kg. and collection of plasma and brain at 1, 2, 4, and 8 hours, the brain/plasma ratio was ˜3:2 for 30 mg/kg oral dosing and ˜2:1 for 30 mg/kg SQ injection. […] After oral dosing at 30 mg/kg, brain levels peaked at 1 hour at 328 ng/g."}, "[8]": {"conditions": "hippocampus and entorhinal cortex"}, "[9]": {"conditions": "1 μM compound and 100 nM CRF, 24 hours"}}, "note": "“And” between values parts separate entries of the source, which are not always exact repeats. Equal entries are not always repeated.", "data": [{"smiles": "CCC(COC)Nc1nc(C)nc(Oc2c(C)cc(C)cc2C)c1C", "note": "(stereo not shown) [Compound T33]", "values": [{"measurement": "p-tau", "setting": "[1]", "result": "slightly decreased"}, {"measurement": "total tau", "setting": "[1]", "result": "slightly decreased"}, {"measurement": "EC50", "setting": "CRFR1 [2]; values given in μM", "result": "> 2", "unit": "µM"}, {"measurement": "Kd", "setting": "CRFR1 [3]", "result": "~30", "unit": "nM"}, {"measurement": "PAMPA KIAM", "setting": "[4]", "result": 6.34}]}, {"smiles": "CCC(COC)Nc1nc(C)nc(Oc2ccc(OC)cc2C)c1C", "note": "(stereo not shown) [Compound T36, 6-(4-methoxy-2-methylphenoxy)-N-(1-methoxybutan-2-yl)-2,5-dimethylpyrimidin-4-amine]", "values": [{"measurement": "Kd", "setting": "CRFR1 [3]", "result": "> 100", "unit": "nM"}, {"measurement": "PAMPA KIAM", "setting": "[4]", "result": 2.31}]}, {"smiles": "CCC(COC)Nc1nc(C)nc(Oc2ccc(Cl)cc2C)c1C", "note": "(stereo not shown) [Compound T37, 6-(4-chloro-2-methylphenoxy)-N-(1-methoxybutan-2-yl)-2,5-dimethylpyrimidin-4-amine]", "values": [{"measurement": "Kd", "setting": "CRFR1 [3]", "result": "> 100", "unit": "nM"}, {"measurement": "PAMPA KIAM", "setting": "[4]", "result": 5.79}]}, {"smiles": "CCC(COC)Oc1nc(C)nc(Nc2ccc(OC)cc2C)c1C", "note": "(stereo not shown) [Compound T38, N-(4-methoxy-2-methylphenyl)-6-((1-methoxybutan-2-yl)oxy)-2,5-dimethylpyrimidin-4-amine]", "values": [{"measurement": "EC50", "setting": "CRFR1 [2]; values given in μM", "result": "> 2", "unit": "µM"}, {"measurement": "Kd", "setting": "CRFR1 [3]", "result": "~30", "unit": "nM"}, {"measurement": "PAMPA KIAM", "setting": "[4]", "result": 2.02}]}, {"smiles": "CCC(COC)Oc1nc(C)nc(Nc2ccc(Cl)cc2C)c1C", "note": "(stereo not shown) [Compound T39]", "values": [{"measurement": "p-tau", "setting": "[1]", "result": "slightly decreased"}, {"measurement": "p-tau/tau ratio", "setting": "[1]", "result": "significantly decreased"}, {"measurement": "total tau", "setting": "[1]", "result": "slightly decreased"}, {"measurement": "EC50", "setting": "CRFR1 [2]; values given in μM", "result": "> 10", "unit": "µM"}, {"measurement": "Kd", "setting": "CRFR1 [3]", "result": 75, "unit": "nM"}, {"measurement": "PAMPA KIAM", "setting": "[4]", "result": 6.19}]}, {"smiles": "CCC(COC)Oc1nc(C)nc(OC(CC)COC)c1C", "note": "(stereo not shown) [Compound T40]", "values": [{"measurement": "Kd", "setting": "CRFR1 [3]", "result": "> 100", "unit": "nM"}, {"measurement": "PAMPA KIAM", "setting": "[4]", "result": 4.68}]}, {"smiles": "CCC(COC)Oc1nc(C)nc(Nc2c(C)cc(C)cc2C)c1C", "note": "(stereo not shown) [Compound T41]", "values": [{"measurement": "novelty preference (NOR), post-study", "setting": "[5]", "result": "promising trend toward some increased novelty preference"}, {"measurement": "p-tau", "setting": "[1]", "result": "slightly decreased"}, {"measurement": "p-tau/tau ratio", "setting": "[1]", "result": "significantly decreased"}, {"measurement": "total tau", "setting": "[1]", "result": "slightly decreased"}, {"measurement": "Ki", "setting": "CRFR1 [2]; CRFR1 cAMP signaling upon CRF binding", "result": 400, "unit": "nM"}, {"measurement": "inhibition at 1 µM", "setting": "CRFR1 [2]; at 1 μM, upon CRF binding", "result": 70, "unit": "%"}, {"measurement": "EC50", "setting": "CRFR1 [2]; values in nM", "result": 0.4, "unit": "µM"}, {"measurement": "ptau", "setting": "ptau and total tau; [8]", "result": "no significant difference"}, {"measurement": "total tau", "setting": "ptau and total tau; [8]", "result": "overall had the highest value"}, {"measurement": "ptau/tau ratio", "setting": "ptau and total tau; versus CTS alone", "result": "T41 pre-treatment to prevent that increase"}, {"measurement": "p-tau", "setting": "[6]; [9]", "result": "lowers p-tau with high significance"}, {"measurement": "p-tau/tau ratio", "setting": "[6]; [9]", "result": "significant lowering"}, {"measurement": "tau", "setting": "[6]; [9]", "result": "does not lower tau"}, {"measurement": "ptau/tau ratio", "setting": "[6]; with 100 nM CRF", "result": "lowers the ptau/tau ratio"}, {"measurement": "ptau/tau ratio", "setting": "[6]; without CRF", "result": "lowers the ptau/tau ratio"}, {"measurement": "sAPPα", "setting": "human sAPPα", "result": "trend toward an increase in sAPPα in T41-treated mice that was not statistically significant"}, {"measurement": "brain levels, comparison of doses and routes", "setting": "[7]; 10 or 30 mg/kg, oral or SQ", "result": "higher at 30 than 10 mg/kg and higher with SQ injection than oral delivery"}, {"measurement": "peak brain level", "setting": "[7]; oral dosing at 30 mg/kg", "result": 328, "unit": "ng/g"}, {"measurement": "time of peak brain level", "setting": "[7]; oral dosing at 30 mg/kg", "result": 1, "unit": "h"}, {"measurement": "Kd", "setting": "CRFR1 [3]", "result": "~15 nM and 15 nM"}, {"measurement": "PAMPA KIAM", "setting": "[4]", "result": 4.01}]}, {"smiles": "CCC(COC)Oc1nc(C)nc(Nc2ccc(F)cc2F)c1C", "note": "(stereo not shown) [Compound T45]", "values": [{"measurement": "Kd", "setting": "CRFR1 [3]", "result": "> 100", "unit": "nM"}, {"measurement": "PAMPA KIAM", "setting": "[4]", "result": 3.32}]}, {"smiles": "CCC(COC)Oc1nc(C)nc(Nc2ccc(F)cc2C(F)(F)F)c1C", "note": "(stereo not shown) [Compound T46]", "values": [{"measurement": "Kd", "setting": "CRFR1 [3]", "result": "> 100", "unit": "nM"}, {"measurement": "PAMPA KIAM", "setting": "[4]", "result": 2.90}]}, {"smiles": "CCC(COC)Oc1nc(C)nc(Nc2c(F)cc(F)cc2F)c1C", "note": "(stereo not shown) [Compound T47]", "values": [{"measurement": "Kd", "setting": "CRFR1 [3]", "result": "> 100", "unit": "nM"}, {"measurement": "PAMPA KIAM", "setting": "[4]", "result": 2.00}]}, {"smiles": "CCC(COC)Oc1nc(C)nc(Nc2ccc(F)cc2C)c1C", "note": "(stereo not shown) [Compound T48]", "values": [{"measurement": "PAMPA KIAM", "setting": "[4]", "result": 3.27}]}, {"smiles": "CCC(COC)Oc1nc(C)nc(Nc2c(C)cc(F)cc2C)c1C", "note": "(stereo not shown) [Compound T49]", "values": [{"measurement": "Kd", "setting": "CRFR1 [3]", "result": 40, "unit": "nM"}]}, {"smiles": "CCC(COC)Oc1nc(C)nc(Nc2ncc(C)cc2C)c1C", "note": "(stereo not shown) [Compound T51]", "values": [{"measurement": "Kd", "setting": "CRFR1 [3]", "result": 1000, "unit": "nM"}]}, {"smiles": "CCC(COC)Oc1nc(C)nc(Nc2cnn(C)c2C)c1C", "note": "(stereo not shown) [Compound T53]", "values": [{"measurement": "CRF1 (agonist radioligand) Kd/(nM)", "setting": "CRFR1 [3]", "result": "DEAD"}]}, {"smiles": "CCC(COC)Oc1nc(C)nc(Nc2ccn(C)n2)c1C", "note": "(stereo not shown) [Compound T54]", "values": [{"measurement": "CRF1 (agonist radioligand) Kd/(nM)", "setting": "CRFR1 [3]", "result": "DEAD"}]}]}
